# Reference: PubChem BioAssay AID1963426 (Molecular Pharmacology Branch, DTP, NCI, 2024)
# System: 186277-243-T-J2-PDC complex spheroid growth, % test/control
# Assay: Anticancer human tumor 186277-243-T-J2-PDC patient-derived colon adenocarcinoma cell line growth inhibition [Asc]
# Conditions: for IC50: curve of first compound; for viability, T/C: stronger effect = lower value
# Method: Multicellular complex tumor spheroid response to apoptosis pathway targeting inhibitors Alrizomadlin, Pelcitoclax, and Dasminapant in combination with a variety of drugs and investigational agents in selected tumor cell lines
# The MDM2 inhibitor alrizomadlin, the Bcl-2/Bcl-xL inhibitor pelcitoclax, and the IAPs inhibitor dasminapant were evaluated both individually and in combination with standard of care and investigational anticancer small molecules within a complex spheroid model of solid tumors. . Complex spheroids include a stromal component modeled by human endothelial cells (HUVEC) and fibroblasts modeled by human mesenchymal stem cells (MSCs). The concentration ranges selected for each drug and investigational agent were based upon clinically achievable concentrations if the clinical Cmax of the agent was known.
# Compounds. The drugs and investigational agents: alrizomadlin (APG-115; NSC831270), pelcitoclax (APG-1252; NSC835773), dasminapant (APG-1387;NSC834197), TAK-243 (NSC785004), copanlisib (NSC809693), olaparib (NSC753686), talazoparib (NSC767125), cobimetinib (NSC 768068), eltanexor (KPT-8602, NSC 794443), abemaciclib (NSC 768073), sotorasib (NSC818433), adagrasib (NSC 831453), MRTX-1133 (NSC 836407), Iadademestat (ORY1001, NSC 806812), and RMC-4630 (NSC839698), were obtained from the NCI Developmental Therapeutics Program Chemical Repository. The FDA-approved anticancer drug set is available from the Developmental Therapeutics Program at https://dtp.cancer.gov/organization/dscb/obtaining/available plates.htm. […] The stock solutions were prepared in dimethyl sulfoxide (DMSO, Sigma-Aldrich, St. Louis, MO, cat. D2650) at 800-fold the tested concentration and stored at -70 degrees C prior to their use. All drugs and investigational agents were tested over a range starting from a high concentration at or near the clinical Cmax and decreasing in half-log increments. If the clinical Cmax for an agent had not been determined, the highest concentration tested was 10 microM.
# The patient-derived cancer (PDC) cell lines include five colon adenocarcinomas: 186277-243-T-J2-PDC, 616215-338-R-J1-PDC, 439559-082-T-J2-PDC, 463943-066-T-J2-PDC, and 519858-162-T-J1-PDC; three pancreatic carcinomas: 323965-272-R-J2-PDC, 521955-158-R6-J3-PDC, and 521955-158-R2-J5-PDC; two uterine sarcomas: 327498-152-R-J2-PDC and 993429-296-R-J1-PDC; two rhabdomyosarcomas: 755483-174-R-J1-PDC and 772245-204-R-J1-PDC; two soft tissue sarcomas: 126254-015-R-J1-PDC and 494315-158-R-J1-PDC; two malignant fibrous histiocytomas: 317291-083-R-J1-PDC and 596521-263-R-J1-PDC; two breast carcinomas: 171881-019-R-J1-PDC and 885512-296-R-J2-PDC; and one ovarian carcinoma: 6556581-035-R-J-PDC were obtained from the NCI PDMR, (https://pdmr.cancer.gov). The established cell lines HSSY-2 synovial sarcoma (RRID:CVCL 8719), SYO-1 synovial sarcoma (RRID:CVCL_7146), MPNST malignant peripheral neural sheath tumor were obtained from the Sloan Kettering Institute. The following established cell lines were purchased from the American Type Culture Collection (ATCC, Manassas, VA), Sor the received from the NCI repository:, PANC-1 pancreatic carcinoma (CRL-1469, RRID:CVCL_0480), OVCAR-5 ovarian carcinoma (RRID:CVCL_1628), OVCAR-8 ovarian carcinoma (RRID:CVCL_1629), , MCF-7 breast carcinoma (CRL-12584, RRID:CVCL_0031), MDA-MB-231 breast carcinoma (CRL-12532, RRID:CVCL_0062), NCI-H1876 small cell lung carcinoma (CRL-5902, RRID:CVCL_1503), NCI-H510A small cell lung carcinoma (HTB-184, RRID:CVCL_1565), NCI-H1417 (CRL-5869, RRID:CVCL_1469), and NCI-H196 small cell lung carcinoma (CRL-5823, RRID:CVCL_1509). Dr. Peter Houghton (Greehey Children's Cancer Research Institute, University of Texas Health Science Center, San Antonio, TX) provided Rh-18 rhabdomyosarcoma (RRID:CVCL_1659). Pooled donor human umbilical vein endothelial cells (HUVEC, Lonza, cat. CC-2519) and human mesenchymal stem cells (hMSC, Lonza, cat. PT-2501) were purchased from Lonza (Walkersville, MD).
# Cell Culture. […]
# [1] = second compound 0.03 µM, first compound 0.00316 µM
# [2] = second compound 0.03 µM, first compound 0.01 µM
# [3] = second compound 0.03 µM, first compound 0.0316 µM
# [4] = second compound 0.03 µM, first compound 0.1 µM
# [5] = second compound 0.0949 µM, first compound 0.00316 µM
# [6] = second compound 0.0949 µM, first compound 0.01 µM
# [7] = second compound 0.0949 µM, first compound 0.0316 µM
# [8] = second compound 0.0949 µM, first compound 0.1 µM
# [9] = second compound 0.3 µM, first compound 0.00316 µM
# [10] = second compound 0.3 µM, first compound 0.01 µM
# [11] = second compound 0.3 µM, first compound 0.0316 µM
# [12] = second compound 0.3 µM, first compound 0.1 µM
# [13] = second compound 0.949 µM, first compound 0.00316 µM
# [14] = second compound 0.949 µM, first compound 0.01 µM
# [15] = second compound 0.949 µM, first compound 0.0316 µM
# [16] = second compound 0.949 µM, first compound 0.1 µM
# [17] = second compound 3 µM, first compound 0.00316 µM
# [18] = second compound 3 µM, first compound 0.01 µM
# [19] = second compound 3 µM, first compound 0.0316 µM
# [20] = second compound 3 µM, first compound 0.1 µM
# 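Also: spheroids exposed to agents for 7 days.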
# 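For viability, T/C in this document: 100% = DMSO vehicle control wells.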
smiles,measurement,setting,value
CCN1CCN(Cc2ccc(Nc3ncc(F)c(-c4cc(F)c5nc(C)n(C(C)C)c5c4)n3)nc2)CC1 + CCN1C(C(=O)NC23CCC(C(=O)O)(CC2)CC3)C(c2cccc(Cl)c2F)C2(C(=O)Nc3cc(Cl)ccc32)C12CCCCC2,IC50,second compound 0.03 µM,> 1000 nM
same,IC50,second compound 0.0949 µM,> 1000 nM
same,IC50,second compound 0.3 µM,704 nM
same,IC50,second compound 0.949 µM,24.6 nM
same,IC50,second compound 3 µM,< 3.16 nM
same,"viability, T/C",[1],114%
same,"viability, T/C",[2],130%
same,"viability, T/C",[3],112%
same,"viability, T/C",[4],97%
same,"viability, T/C","second compound 0.03 µM, first compound 0.316 µM",99.6%
same,"viability, T/C","second compound 0.03 µM, first compound 1 µM",85.2%
same,"viability, T/C",[5],107%
same,"viability, T/C",[6],99.8%
same,"viability, T/C",[7],89.4%
same,"viability, T/C",[8],75%
same,"viability, T/C","second compound 0.0949 µM, first compound 0.316 µM",82.3%
same,"viability, T/C","second compound 0.0949 µM, first compound 1 µM",64.7%
same,"viability, T/C",[9],68.1%
same,"viability, T/C",[10],74.7%
same,"viability, T/C",[11],65.8%
same,"viability, T/C",[12],61.6%
same,"viability, T/C","second compound 0.3 µM, first compound 0.316 µM",64.2%
same,"viability, T/C","second compound 0.3 µM, first compound 1 µM",44.6%
same,"viability, T/C",[13],49.7%
same,"viability, T/C",[14],52.6%
same,"viability, T/C",[15],50.4%
same,"viability, T/C",[16],44.3%
same,"viability, T/C","second compound 0.949 µM, first compound 0.316 µM",39.5%
same,"viability, T/C","second compound 0.949 µM, first compound 1 µM",34.7%
same,"viability, T/C",[17],29.1%
same,"viability, T/C",[18],31.5%
same,"viability, T/C",[19],26.8%
same,"viability, T/C",[20],25.7%
same,"viability, T/C","second compound 3 µM, first compound 0.316 µM",23.2%
same,"viability, T/C","second compound 3 µM, first compound 1 µM",24.6%
NC(=O)C(=Cn1cnc(-c2cc(C(F)(F)F)cc(C(F)(F)F)c2)n1)c1cncnc1 + CCN1C(C(=O)NC23CCC(C(=O)O)(CC2)CC3)C(c2cccc(Cl)c2F)C2(C(=O)Nc3cc(Cl)ccc32)C12CCCCC2,IC50,second compound 0.03 µM,70.4 nM
same,IC50,second compound 0.0949 µM,23.4 nM
same,IC50,second compound 0.3 µM,6.95 nM
same,IC50,second compound 0.949 µM,< 0.949 nM
same,IC50,second compound 3 µM,< 0.949 nM
same,"viability, T/C","second compound 0.03 µM, first compound 0.000949 µM",111%
same,"viability, T/C","second compound 0.03 µM, first compound 0.003 µM",113%
same,"viability, T/C","second compound 0.03 µM, first compound 0.00949 µM",81.5%
same,"viability, T/C","second compound 0.03 µM, first compound 0.03 µM",60.4%
same,"viability, T/C","second compound 0.03 µM, first compound 0.0949 µM",56.3%
same,"viability, T/C","second compound 0.03 µM, first compound 0.3 µM",5.86%
same,"viability, T/C","second compound 0.0949 µM, first compound 0.000949 µM",109%
same,"viability, T/C","second compound 0.0949 µM, first compound 0.003 µM",83.3%
same,"viability, T/C","second compound 0.0949 µM, first compound 0.00949 µM",51.7%
same,"viability, T/C","second compound 0.0949 µM, first compound 0.03 µM",48%
same,"viability, T/C","second compound 0.0949 µM, first compound 0.0949 µM",46.1%
same,"viability, T/C","second compound 0.0949 µM, first compound 0.3 µM",2.91%
same,"viability, T/C","second compound 0.3 µM, first compound 0.000949 µM",65.2%
same,"viability, T/C","second compound 0.3 µM, first compound 0.003 µM",58.8%
same,"viability, T/C","second compound 0.3 µM, first compound 0.00949 µM",45.3%
same,"viability, T/C","second compound 0.3 µM, first compound 0.03 µM",34.1%
same,"viability, T/C","second compound 0.3 µM, first compound 0.0949 µM",14%
same,"viability, T/C","second compound 0.3 µM, first compound 0.3 µM",0.39%
same,"viability, T/C","second compound 0.949 µM, first compound 0.000949 µM",44.6%
same,"viability, T/C","second compound 0.949 µM, first compound 0.003 µM",40.1%
same,"viability, T/C","second compound 0.949 µM, first compound 0.00949 µM",25.3%
same,"viability, T/C","second compound 0.949 µM, first compound 0.03 µM",7.03%
same,"viability, T/C","second compound 0.949 µM, first compound 0.0949 µM",1.37%
same,"viability, T/C","second compound 0.949 µM, first compound 0.3 µM",0.18%
same,"viability, T/C","second compound 3 µM, first compound 0.000949 µM",24.1%
same,"viability, T/C","second compound 3 µM, first compound 0.003 µM",20.6%
same,"viability, T/C","second compound 3 µM, first compound 0.00949 µM",3.76%
same,"viability, T/C","second compound 3 µM, first compound 0.03 µM",0.85%
same,"viability, T/C","second compound 3 µM, first compound 0.0949 µM",0.44%
same,"viability, T/C","second compound 3 µM, first compound 0.3 µM",0.84%
NC1CCC(NC2CC2c2ccccc2)CC1 (stereo not given) + CCN1C(C(=O)NC23CCC(C(=O)O)(CC2)CC3)C(c2cccc(Cl)c2F)C2(C(=O)Nc3cc(Cl)ccc32)C12CCCCC2,IC50,second compound 0.03 µM,> 100 nM
same,IC50,second compound 0.0949 µM,> 100 nM
same,IC50,second compound 0.3 µM,> 100 nM
same,IC50,second compound 0.949 µM,> 100 nM
same,IC50,second compound 3 µM,< 0.316 nM
same,"viability, T/C","second compound 0.03 µM, first compound 0.000316 µM",111%
same,"viability, T/C","second compound 0.03 µM, first compound 0.001 µM",138%
same,"viability, T/C",[1],112%
same,"viability, T/C",[2],106%
same,"viability, T/C",[3],123%
same,"viability, T/C",[4],113%
same,"viability, T/C","second compound 0.0949 µM, first compound 0.000316 µM",114%
same,"viability, T/C","second compound 0.0949 µM, first compound 0.001 µM",132%
same,"viability, T/C",[5],134%
same,"viability, T/C",[6],131%
same,"viability, T/C",[7],131%
same,"viability, T/C",[8],141%
same,"viability, T/C","second compound 0.3 µM, first compound 0.000316 µM",93.4%
same,"viability, T/C","second compound 0.3 µM, first compound 0.001 µM",97.8%
same,"viability, T/C",[9],94.9%
same,"viability, T/C",[10],93.3%
same,"viability, T/C",[11],92.9%
same,"viability, T/C",[12],91.3%
same,"viability, T/C","second compound 0.949 µM, first compound 0.000316 µM",66.3%
same,"viability, T/C","second compound 0.949 µM, first compound 0.001 µM",69.2%
same,"viability, T/C",[13],66.1%
same,"viability, T/C",[14],65.8%
same,"viability, T/C",[15],67.9%
same,"viability, T/C",[16],65.7%
same,"viability, T/C","second compound 3 µM, first compound 0.000316 µM",42.1%
same,"viability, T/C","second compound 3 µM, first compound 0.001 µM",43.6%
same,"viability, T/C",[17],44.1%
same,"viability, T/C",[18],39.5%
same,"viability, T/C",[19],41.4%
same,"viability, T/C",[20],42.8%
